Assay results: US10221197B2, “Phosphatidylinositol 3-kinase inhibitors” (Gilead Sciences, Inc., priority 2014, dated 2019)

Assays:
Format in all cases: biochemical
[1] = molecular target: PI3Kδ (Homo sapiens (Human), UniProt O00329); assay: TR-FRET enzymatic assay of PI3K isoforms (PI3Kδ); conditions: 2×Km ATP, 2 μM PIP2, incubated for 30 minutes at 25° C., read-out: δ IC50
Procedure: (§1) The compounds of formula (I) were characterized for their enzymatic activity against the PI3K isoforms. Certain compounds of the present application, including certain compounds of formula (II) and (III) were also characterized for their enzymatic activity against PI3K isoforms. The activities were measured using a time-resolved fluorescence resonance energy transfer (TR-FRET) assay.

[2] = molecular target: PI3Kβ (Homo sapiens (Human), UniProt P42338); assay: TR-FRET enzymatic assay of PI3K isoforms (PI3Kβ); conditions: TR-FRET, 2×Km ATP, 2 μM PIP2, incubated for 30 minutes at 25° C.; read-out: β IC50
Procedure: as §1

[3] = molecular target: PI3Kγ (Homo sapiens (Human), UniProt P48736); assay: TR-FRET enzymatic assay of PI3K isoforms (PI3Kγ); conditions: TR-FRET, 2×Km ATP, 2 μM PIP2, PI3Kγ at 2 nM, incubated for 30 minutes at 25° C.; read-out: γ IC50
Procedure: as §1

Sequence of PI3Kδ (O00329 whole entry, canonical isoform): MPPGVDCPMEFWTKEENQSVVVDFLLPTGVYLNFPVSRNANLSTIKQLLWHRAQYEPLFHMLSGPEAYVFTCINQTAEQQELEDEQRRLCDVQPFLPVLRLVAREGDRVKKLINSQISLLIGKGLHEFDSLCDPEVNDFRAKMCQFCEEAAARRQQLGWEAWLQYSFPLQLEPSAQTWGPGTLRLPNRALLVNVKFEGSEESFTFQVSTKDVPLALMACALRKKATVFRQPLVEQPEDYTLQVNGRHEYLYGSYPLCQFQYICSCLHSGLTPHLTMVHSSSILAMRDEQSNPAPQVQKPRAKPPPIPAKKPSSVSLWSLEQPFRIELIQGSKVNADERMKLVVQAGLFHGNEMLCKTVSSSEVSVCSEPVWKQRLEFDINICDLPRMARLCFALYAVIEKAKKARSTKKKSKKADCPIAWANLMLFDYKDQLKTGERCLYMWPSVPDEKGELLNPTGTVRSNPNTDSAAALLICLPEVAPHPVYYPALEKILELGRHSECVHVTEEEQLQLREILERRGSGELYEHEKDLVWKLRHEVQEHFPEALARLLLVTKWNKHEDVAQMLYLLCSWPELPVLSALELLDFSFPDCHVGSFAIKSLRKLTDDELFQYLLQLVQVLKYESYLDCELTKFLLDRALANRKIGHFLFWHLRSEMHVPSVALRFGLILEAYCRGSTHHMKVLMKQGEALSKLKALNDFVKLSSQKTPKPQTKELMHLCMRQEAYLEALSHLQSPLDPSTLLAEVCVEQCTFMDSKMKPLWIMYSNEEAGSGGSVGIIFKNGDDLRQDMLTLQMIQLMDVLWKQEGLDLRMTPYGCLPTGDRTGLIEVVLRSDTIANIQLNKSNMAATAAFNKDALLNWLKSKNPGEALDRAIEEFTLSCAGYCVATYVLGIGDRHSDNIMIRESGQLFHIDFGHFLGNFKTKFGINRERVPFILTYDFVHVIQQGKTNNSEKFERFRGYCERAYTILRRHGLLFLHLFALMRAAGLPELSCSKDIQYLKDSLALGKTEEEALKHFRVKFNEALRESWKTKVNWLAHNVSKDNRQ
Sequence of PI3Kδ (P27986 whole entry partner, canonical isoform): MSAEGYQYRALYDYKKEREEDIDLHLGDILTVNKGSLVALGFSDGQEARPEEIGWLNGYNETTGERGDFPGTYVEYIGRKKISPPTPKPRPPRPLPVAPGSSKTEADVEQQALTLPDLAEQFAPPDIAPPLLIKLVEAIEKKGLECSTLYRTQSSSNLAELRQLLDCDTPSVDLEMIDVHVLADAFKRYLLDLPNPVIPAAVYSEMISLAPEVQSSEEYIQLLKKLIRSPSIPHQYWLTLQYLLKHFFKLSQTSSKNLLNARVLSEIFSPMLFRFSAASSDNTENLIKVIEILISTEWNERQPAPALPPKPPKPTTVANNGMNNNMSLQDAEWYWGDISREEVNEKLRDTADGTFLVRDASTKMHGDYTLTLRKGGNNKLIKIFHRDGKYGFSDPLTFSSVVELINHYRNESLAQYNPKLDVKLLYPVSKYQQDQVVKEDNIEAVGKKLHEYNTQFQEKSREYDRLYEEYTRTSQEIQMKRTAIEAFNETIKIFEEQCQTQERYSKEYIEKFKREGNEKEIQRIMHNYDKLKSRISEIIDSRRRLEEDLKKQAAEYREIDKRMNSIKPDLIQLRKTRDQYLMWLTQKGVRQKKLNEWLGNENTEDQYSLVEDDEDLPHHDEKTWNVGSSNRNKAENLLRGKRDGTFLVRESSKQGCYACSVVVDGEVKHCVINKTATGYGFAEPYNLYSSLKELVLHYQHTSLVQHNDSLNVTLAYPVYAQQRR
Sequence of PI3Kβ (P42338 whole entry, canonical isoform): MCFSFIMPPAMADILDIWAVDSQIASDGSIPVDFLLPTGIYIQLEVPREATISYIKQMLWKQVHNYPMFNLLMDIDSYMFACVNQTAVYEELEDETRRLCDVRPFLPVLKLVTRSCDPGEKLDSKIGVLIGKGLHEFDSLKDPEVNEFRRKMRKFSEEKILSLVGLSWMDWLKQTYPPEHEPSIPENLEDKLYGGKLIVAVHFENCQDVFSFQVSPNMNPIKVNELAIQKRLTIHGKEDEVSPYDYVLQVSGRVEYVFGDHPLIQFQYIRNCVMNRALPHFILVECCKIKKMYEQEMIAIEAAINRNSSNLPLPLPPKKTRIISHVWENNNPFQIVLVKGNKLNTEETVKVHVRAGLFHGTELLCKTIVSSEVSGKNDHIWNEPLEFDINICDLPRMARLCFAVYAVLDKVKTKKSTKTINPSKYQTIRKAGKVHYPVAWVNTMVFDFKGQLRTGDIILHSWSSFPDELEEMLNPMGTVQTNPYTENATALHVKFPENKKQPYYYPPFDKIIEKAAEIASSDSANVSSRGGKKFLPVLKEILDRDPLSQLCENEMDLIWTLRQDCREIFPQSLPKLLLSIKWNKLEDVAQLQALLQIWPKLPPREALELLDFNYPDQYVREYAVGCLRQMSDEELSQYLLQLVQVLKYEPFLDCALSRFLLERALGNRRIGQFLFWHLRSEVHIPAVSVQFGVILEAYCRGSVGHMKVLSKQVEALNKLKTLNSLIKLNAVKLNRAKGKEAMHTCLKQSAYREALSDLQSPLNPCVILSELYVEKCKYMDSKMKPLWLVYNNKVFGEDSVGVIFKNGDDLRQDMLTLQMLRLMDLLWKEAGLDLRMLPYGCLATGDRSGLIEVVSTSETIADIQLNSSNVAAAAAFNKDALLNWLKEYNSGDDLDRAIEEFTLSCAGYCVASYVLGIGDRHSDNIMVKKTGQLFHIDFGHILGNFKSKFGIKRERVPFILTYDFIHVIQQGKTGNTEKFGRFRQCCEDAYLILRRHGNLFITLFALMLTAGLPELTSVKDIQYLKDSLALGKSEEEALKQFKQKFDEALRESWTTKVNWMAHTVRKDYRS
Sequence of PI3Kβ (P27986 whole entry partner, canonical isoform): as the sequence (P27986 whole entry partner, canonical isoform) above
Sequence of PI3Kγ (P48736 whole entry, canonical isoform): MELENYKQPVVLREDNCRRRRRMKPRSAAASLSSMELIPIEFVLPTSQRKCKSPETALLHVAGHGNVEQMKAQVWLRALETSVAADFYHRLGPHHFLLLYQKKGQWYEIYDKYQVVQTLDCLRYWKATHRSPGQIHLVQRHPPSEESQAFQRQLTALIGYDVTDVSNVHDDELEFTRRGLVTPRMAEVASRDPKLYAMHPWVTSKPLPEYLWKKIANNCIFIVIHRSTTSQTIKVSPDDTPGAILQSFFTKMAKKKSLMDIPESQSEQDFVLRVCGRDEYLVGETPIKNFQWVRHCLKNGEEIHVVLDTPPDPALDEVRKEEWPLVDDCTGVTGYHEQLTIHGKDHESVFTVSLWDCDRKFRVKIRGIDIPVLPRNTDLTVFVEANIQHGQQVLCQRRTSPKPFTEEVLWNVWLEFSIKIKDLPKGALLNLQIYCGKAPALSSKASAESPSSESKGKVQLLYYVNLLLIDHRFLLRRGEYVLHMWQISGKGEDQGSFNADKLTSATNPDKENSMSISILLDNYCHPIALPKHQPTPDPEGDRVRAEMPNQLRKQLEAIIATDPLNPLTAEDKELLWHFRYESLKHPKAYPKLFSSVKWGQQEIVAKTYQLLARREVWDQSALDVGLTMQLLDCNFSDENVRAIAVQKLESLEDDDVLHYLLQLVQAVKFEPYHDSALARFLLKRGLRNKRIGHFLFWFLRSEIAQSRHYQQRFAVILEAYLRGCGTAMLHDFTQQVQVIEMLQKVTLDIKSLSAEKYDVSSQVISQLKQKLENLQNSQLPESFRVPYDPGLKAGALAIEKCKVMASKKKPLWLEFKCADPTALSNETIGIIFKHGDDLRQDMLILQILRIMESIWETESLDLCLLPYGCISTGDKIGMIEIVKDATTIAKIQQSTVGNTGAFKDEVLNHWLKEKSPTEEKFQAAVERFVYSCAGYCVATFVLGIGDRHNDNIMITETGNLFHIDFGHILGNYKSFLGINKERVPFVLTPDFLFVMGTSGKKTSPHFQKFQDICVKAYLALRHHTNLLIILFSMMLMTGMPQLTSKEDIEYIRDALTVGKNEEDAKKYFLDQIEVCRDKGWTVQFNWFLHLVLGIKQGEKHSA
Sequence of PI3Kγ (Q8WYR1 whole entry partner, canonical isoform): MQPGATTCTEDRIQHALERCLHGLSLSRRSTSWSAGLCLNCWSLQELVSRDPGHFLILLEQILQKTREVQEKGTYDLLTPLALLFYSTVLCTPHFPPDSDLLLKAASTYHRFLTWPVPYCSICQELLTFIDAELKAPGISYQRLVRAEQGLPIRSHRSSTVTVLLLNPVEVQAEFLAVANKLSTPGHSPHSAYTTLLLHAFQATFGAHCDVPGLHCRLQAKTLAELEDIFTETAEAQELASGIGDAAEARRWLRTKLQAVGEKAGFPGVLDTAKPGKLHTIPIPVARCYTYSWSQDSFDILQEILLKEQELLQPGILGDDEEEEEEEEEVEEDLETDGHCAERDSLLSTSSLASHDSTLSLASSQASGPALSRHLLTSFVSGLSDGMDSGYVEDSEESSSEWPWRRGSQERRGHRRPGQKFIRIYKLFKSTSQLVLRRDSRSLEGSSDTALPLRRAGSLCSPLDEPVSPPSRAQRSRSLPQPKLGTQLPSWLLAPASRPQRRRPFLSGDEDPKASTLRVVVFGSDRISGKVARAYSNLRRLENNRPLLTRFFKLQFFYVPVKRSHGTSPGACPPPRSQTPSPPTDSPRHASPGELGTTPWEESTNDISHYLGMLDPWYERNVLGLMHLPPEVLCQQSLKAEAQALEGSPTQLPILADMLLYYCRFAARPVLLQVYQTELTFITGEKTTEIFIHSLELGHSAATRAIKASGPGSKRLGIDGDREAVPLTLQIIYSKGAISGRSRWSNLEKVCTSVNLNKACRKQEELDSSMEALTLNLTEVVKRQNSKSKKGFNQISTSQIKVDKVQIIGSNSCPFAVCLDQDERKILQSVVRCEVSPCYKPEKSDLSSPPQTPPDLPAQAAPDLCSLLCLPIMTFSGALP

Row | SMILES | IC50 [1] | IC50 [2] | IC50 [3]
1 | C[C@H](Nc1nc(N)nc(C(F)F)c1C#N)c1nc2c(Cl)cc(F)cc2c(=O)n1-c1cccc(C(N)=O)c1 [Compound 26, (S)-3-(2-(1-((2-amino-5-cyano-6-(difluoromethyl)pyrimidin-4-yl)amino)ethyl)-8-chloro-6-fluoro-4-oxoquinazolin-3(4H)-yl)benzamide] | 12 nM | 313 nM | 7200 nM
2 | NC(=O)c1cccc(-n2c([C@@H](Nc3nc(N)nc(N)c3Cl)C3CC3)nc3c(Cl)cc(F)cc3c2=O)c1 [Compound 28, (S)-3-(8-chloro-2-(cyclopropyl((2,6-diamino-5-chloropyrimidin-4-yl)amino)methyl)-6-fluoro-4-oxoquinazolin-3(4H)-yl)benzamide] | 46 nM | 267 nM | > 10000 nM
3 | C[C@H](Nc1nc(N)nc(N)c1Cl)c1nc2c(Cl)cc(F)cc2c(=O)n1-c1cccc(C(N)=O)c1 [Compound 30, (S)-3-(8-chloro-2-(1-((2,6-diamino-5-chloropyrimidin-4-yl)amino)ethyl)-6-fluoro-4-oxoquinazolin-3(4H)-yl)benzamide] | 22 nM | 252 nM | > 10000 nM
4 | C[C@H](Nc1nc(N)nc(N)c1C#N)c1nc2c(C#N)cc(F)cc2c(=O)n1-c1cccc(C(N)=O)c1 [Compound 31, (S)-3-(8-cyano-2-(1-((2,6-diamino-5-cyanopyrimidin-4-yl)amino)ethyl)-6-fluoro-4-oxoquinazolin-3(4H)-yl)benzamide] | 2 nM | 21 nM | 1100 nM
5 | N#Cc1c(N)nc(N)nc1N[C@H](c1nc2c(C#N)cc(F)cc2c(=O)n1-c1cccc(C(N)=O)c1)C1CC1 [Compound 32, (S)-3-(8-cyano-2-(cyclopropyl((2,6-diamino-5-cyanopyrimidin-4-yl)amino)methyl)-6-fluoro-4-oxoquinazolin-3(4H)-yl)benzamide] | 4 nM | 25 nM | 1800 nM
6 | CC[C@H](Nc1nc(N)nc(N)c1C#N)c1nc2cccc(C(F)F)c2c(=O)n1-c1cccc(C(N)=O)c1 [Compound 33, (S)-3-(2-(1-((2,6-diamino-5-cyanopyrimidin-4-yl)amino)propyl)-5-(difluoromethyl)-4-oxoquinazolin-3(4H)-yl)benzamide] | 0.8 nM | 4 nM | 380 nM
7 | CC[C@H](Nc1nc(N)nc(N)c1Cl)c1nc2cccc(C(F)F)c2c(=O)n1-c1cccc(C(N)=O)c1 [Compound 34, (S)-3-(2-(1-((2,6-diamino-5-chloropyrimidin-4-yl)amino)propyl)-5-(difluoromethyl)-4-oxoquinazolin-3(4H)-yl)benzamide] | 3 nM | 22 nM | 5000 nM
8 | N#Cc1c(N)nc(N)nc1N[C@H](c1nc2cccc(C(F)F)c2c(=O)n1-c1cccc(C(N)=O)c1)C1CC1 [Compound 35, (S)-3-(2-(cyclopropyl((2,6-diamino-5-cyanopyrimidin-4-yl)amino)methyl)-5-(difluoromethyl)-4-oxoquinazolin-3(4H)-yl)benzamide] | 1 nM | 5 nM | 200 nM
9 | C[C@H](Nc1nc(N)nc(N)c1Cl)c1nc2c(C#N)cccc2c(=O)n1-c1cccc(C(N)=O)c1 [Compound 36, (S)-3-(8-cyano-2-(1-((2,6-diamino-5-chloropyrimidin-4-yl)amino)ethyl)-4-oxoquinazolin-3(4H)-yl)benzamide] | 10 nM | 299 nM | > 10000 nM
10 | C[C@H](Nc1ncnc(N)c1C#Cc1cnccn1)c1nc2cccc(Cl)c2c(=O)n1-c1cccc(C(N)=O)c1 [Compound 37, (S)-3-(2-(1-((6-amino-5-(pyrazin-2-ylethynyl)pyrimidin-4-yl)amino)ethyl)-5-chloro-4-oxoquinazolin-3(4H)-yl)benzamide] | 7 nM | 243 nM | > 10000 nM
11 | C[C@H](Nc1ncnc(N)c1C#Cc1ccccn1)c1nc2cccc(Cl)c2c(=O)n1-c1cccc(C(N)=O)c1 [Compound 38, (S)-3-(2-(1-((6-amino-5-(pyridin-2-ylethynyl)pyrimidin-4-yl)amino)ethyl)-5-chloro-4-oxoquinazolin-3(4H)-yl)benzamide] | 1 nM | 52 nM | 1500 nM
12 | CCNC(=O)Nc1cccc(-n2c([C@@H](Nc3ncnc(N)c3[N+](=O)[O-])[C@@H](C)CC)nc3cccc(Cl)c3c2=O)c1 [Compound 43, 1-(3-(2-((1S,2S)-1-((6-amino-5-nitropyrimidin-4-yl)amino)-2-methylbutyl)-5-chloro-4-oxoquinazolin-3(4H)-yl)phenyl)-3-ethylurea] | 13 nM | 18 nM | > 10000 nM
13 | CCNC(=O)Nc1cccc(-n2c([C@H](C)Nc3ncnc(N)c3C#N)nc3cccc(Br)c3c2=O)c1 [Compound 45, (S)-1-(3-(2-(1-((6-amino-5-cyanopyrimidin-4-yl)amino)ethyl)-5-bromo-4-oxoquinazolin-3(4H)-yl)phenyl)-3-ethylurea] | 2 nM | 6 nM | 1800 nM
14 | C=CCc1cccc2nc([C@H](C)Nc3ncnc(N)c3C#N)n(-c3cccc(NC(=O)NCC)c3)c(=O)c12 [Compound 46, (S)-1-(3-(5-allyl-2-(1-((6-amino-5-cyanopyrimidin-4-yl)amino)ethyl)-4-oxoquinazolin-3(4H)-yl)phenyl)-3-ethylurea] | 17 nM | 35 nM | > 10000 nM
15 | CCNC(=O)Nc1cccc(-n2c([C@H](C)Nc3ncnc(N)c3C#N)nc3ccccc3c2=O)c1 [Compound 52, (S)-1-(3-(2-(1-((6-amino-5-cyanopyrimidin-4-yl)amino)ethyl)-4-oxoquinazolin-3(4H)-yl)phenyl)-3-ethylurea] | 39 nM | 340 nM | > 10000 nM
16 | CCNC(=O)Nc1cccc(-n2c([C@H](C)Nc3ncnc(N)c3C#N)nc3cccc(OC)c3c2=O)c1 [Compound 56, (S)-1-(3-(2-(1-((6-amino-5-cyanopyrimidin-4-yl)amino)ethyl)-5-methoxy-4-oxoquinazolin-3(4H)-yl)phenyl)-3-ethylurea] | 880 nM | 6600 nM | > 10000 nM
17 | CCNC(=O)Nc1cccc(-n2c([C@H](C)N(C)c3ncnc(N)c3C#N)nc3cccc(Cl)c3c2=O)c1 [Compound 57, (S)-1-(3-(2-(1-((6-amino-5-cyanopyrimidin-4-yl)(methyl)amino)ethyl)-5-chloro-4-oxoquinazolin-3(4H)-yl)phenyl)-3-ethylurea] | 610 nM | 580 nM | > 10000 nM

More lines, now with the values ahead:

Row | IC50 [1] | IC50 [2] | IC50 [3] | SMILES
18 | 26 nM | 36 nM | > 10000 nM | CCNC(=O)Nc1cccc(-n2c([C@H](C)Nc3ncnc(N)c3C#N)nc3cccc(F)c3c2=O)c1 [Compound 47, (S)-1-(3-(2-(1-((6-amino-5-cyanopyrimidin-4-yl)amino)ethyl)-5-fluoro-4-oxoquinazolin-3(4H)-yl)phenyl)-3-ethylurea]
19 | 3 nM | 7 nM | > 10000 nM | CCNC(=O)Nc1cccc(-n2c([C@H](C)Nc3ncnc(N)c3C#N)nc3c(Cl)ccc(Cl)c3c2=O)c1 [Compound 48, (S)-1-(3-(2-(1-((6-amino-5-cyanopyrimidin-4-yl)amino)ethyl)-5,8-dichloro-4-oxoquinazolin-3(4H)-yl)phenyl)-3-ethylurea]
20 | 24 nM | 230 nM | > 10000 nM | CCNC(=O)Nc1cccc(-n2c([C@H](C)Nc3ncnc(N)c3C#N)nc3c(F)cccc3c2=O)c1 [Compound 49, (S)-1-(3-(2-(1-((6-amino-5-cyanopyrimidin-4-yl)amino)ethyl)-8-fluoro-4-oxoquinazolin-3(4H)-yl)phenyl)-3-ethylurea]
21 | 22 nM | 84 nM | > 10000 nM | CCNC(=O)Nc1cccc(-n2c([C@H](C)Nc3ncnc(N)c3C#N)nc3c(F)ccc(F)c3c2=O)c1 [Compound 50, (S)-1-(3-(2-(1-((6-amino-5-cyanopyrimidin-4-yl)amino)ethyl)-5,8-difluoro-4-oxoquinazolin-3(4H)-yl)phenyl)-3-ethylurea]
22 | 75 nM | 550 nM | > 10000 nM | CCNC(=O)Nc1cccc(-n2c([C@H](C)Nc3ncnc(N)c3C#N)nc3ccc(F)cc3c2=O)c1 [Compound 53, (S)-1-(3-(2-(1-((6-amino-5-cyanopyrimidin-4-yl)amino)ethyl)-6-fluoro-4-oxoquinazolin-3(4H)-yl)phenyl)-3-ethylurea]
23 | 250 nM | 2600 nM | > 10000 nM | CCNC(=O)Nc1cccc(-n2c([C@H](C)Nc3ncnc(N)c3C#N)nc3cc(F)ccc3c2=O)c1 [Compound 54, (S)-1-(3-(2-(1-((6-amino-5-cyanopyrimidin-4-yl)amino)ethyl)-7-fluoro-4-oxoquinazolin-3(4H)-yl)phenyl)-3-ethylurea]
24 | 3 nM | 12 nM | 1800 nM | CCNC(=O)Nc1cccc(-n2c([C@H](C)Nc3ncnc(N)c3C#N)nc3cccc(C)c3c2=O)c1 [Compound 55, (S)-1-(3-(2-(1-((6-amino-5-cyanopyrimidin-4-yl)amino)ethyl)-5-methyl-4-oxoquinazolin-3(4H)-yl)phenyl)-3-ethylurea]
25 | 4 nM | 7 nM | 3800 nM | CCNC(=O)Nc1cccc(-n2c([C@H](C)Nc3ncnc(N)c3C#N)nc3c(F)ccc(Cl)c3c2=O)c1 [Compound 62, (S)-1-(3-(2-(1-((6-amino-5-cyanopyrimidin-4-yl)amino)ethyl)-5-chloro-8-fluoro-4-oxoquinazolin-3(4H)-yl)phenyl)-3-ethylurea]
